Experimental data reported in patent publication US20160067311A1, “USE OF ELSIGLUTIDE TO TREAT GASTROINTESTINAL MUCOSITIS INCLUDING CHEMOTHERAPY-INDUCED DIARRHEA” (Helsinn Healthcare SA, priority 2014, published 2016).
Peptide text beside a SMILES is read from it.

How the values were obtained:
[1] = Clinical pharmacokinetics of elsiglutide and its metabolites (studies 06-013, TIDE-09-04, TIDE-11-10)
Experimental: (§1) Data on human exposure to elsiglutide generated so far originate from three clinical trials, one performed in healthy subjects (study 06-013) and two in cancer patients (TIDE-09-04, TIDE-11-10). The main objective of the first two studies was the evaluation of the safety, tolerability and maximum tolerated dose (MTD) of ascending elsiglutide doses administered as s.c. (both studies) and i.v. (only study 06-013) bolus injections. In study 06-013 elsiglutide was administered as single i.v. or s.c. bolus, while in study TIDE-09-04 each dose was administered as s.c. bolus on 4 consecutive days. Study TIDE-11-10 was a phase II proof of concept study that mainly evaluated the efficacy of elsiglutide administered as 24 mg daily s.c. bolus injections for 4 consecutive days in preventing CID in patients with colorectal cancer receiving 5-FU based chemotherapy (FOLFOX4 or FOLFIRI regimen). The secondary objectives of all three studies included the evaluation of the pharmacokinetics of elsiglutide and its major metabolites in humans.

[2] = human, in vivo
Experimental: as §1

[3] = tested on: cancer patients; details: patients treated with the drug; cited from earlier work

SMILES | AUC of ZP2242 relative to that of ZP2712 ([1]; human, plasma) | half-life ([1]; human, plasma) | dose dependence of pharmacokinetics (Cmax and AUC increases proportional to dose) ([1]; study TIDE-09-04, s.c. on 4 consecutive days) | exposure to metabolite relative to exposure to the parent ZP1846 (elsiglutide) [2] | patients in whom diarrhea occurs [3]
CC[C@H](C)[C@H](NC(=O)[C@H](CC(C)C)NC(=O)[C@H](Cc1c[nH]c2ccccc12)NC(=O)[C@H](C)NC(=O)[C@@H](NC(=O)[C@H](Cc1ccccc1)NC(=O)[C@H](CC(=O)O)NC(=O)[C@H](CCCNC(=N)N)NC(=O)[C@H](C)NC(=O)[C@H](C)NC(=O)[C@H](CC(C)C)NC(=O)[C@H](C)NC(=O)[C@H](CC(=O)O)NC(=O)[C@H](CC(C)C)NC(=O)[C@@H](NC(=O)[C@@H](NC(=O)[C@H](CO)NC(=O)[C@H](CC(C)C)NC(=O)[C@H](CCC(=O)O)NC(=O)[C@H](CO)NC(=O)[C@H](CO)NC(=O)[C@H](Cc1ccccc1)NC(=O)[C@H](CO)NC(=O)CNC(=O)[C@H](CCC(=O)O)NC(=O)CNC(=O)[C@@H](N)Cc1c[nH]cn1)[C@@H](C)O)[C@@H](C)CC)[C@@H](C)CC)C(=O)N[C@@H](C)C(=O)N[C@H](C(=O)N[C@@H](CCCCN)C(=O)N[C@H](C(=O)N[C@H](C(=O)N[C@@H](CC(=O)O)C(=O)N[C@@H](CCCCN)C(=O)O)[C@@H](C)O)[C@@H](C)CC)[C@@H](C)O [ZP2242] (H-HGEGSFSSELSTILDALAARDFIAWLIATKITDK-OH; N-terminus assumed) | at least 10 times | 6 to 9 h | dose independent | > 25 fold | –
CS(=O)(=O)CCNCc1ccc(-c2ccc3ncnc(Nc4ccc(OCc5cccc(F)c5)c(Cl)c4)c3c2)o1 [lapatinib] | – | – | – | – | up to 60%
